How the values were obtained:
ZEAMA Sileno [1] = assay: Seed treatment with safener; post-emergence herbicide application; assay type: in vivo, maize; parameters: Reduction [Difference]: scale not given here; settings: Final assessment; for Reduction [%] / Reduction [Difference]: Cyprosulfamide 0.5 g a.i./kg seed; for Reduction [Difference]: damage without safener - damage with safener; for HER effect + SAF (crop damage with safener): Cyprosulfamide seed treatment 0.5 g a.i./kg seed; for HER effect (crop damage, herbicide without safener): no safener
Procedure: For the safener seed treatment, sufficient seeds of the respective crops (spring wheat, TRZAS; spring barley, HORVS; maize, ZEAMA) were weighed into screw top glass bottles approximately twice the volume of the seeds.
The specified safeners, formulated as wettable powder (WP) were weighed out so that the specified rates (g a.i./kg seed) would be obtained, dissolved in water (1 ml water per 10 g of seeds), and added to the seeds to produce a slurry.
The bottles were capped and then placed in an overhead shaker (set at medium speed for ca. 60 minutes) so that the seeds were evenly coated with the slurry. The bottles were uncapped and the seeds were either placed on paper and dried for an interval of 3-4 hours prior to sowing, or directly sown. Seeds were placed in sandy loam soil in pots of a diameter of 7-8 cm, covered with soil, and cultivated in a greenhouse under good growth conditions.
Post-emergence application of the specified herbicides was done when the plants had reached growth stage BBCH11-13, on two sets of plants:
a) seed treatment with safener, as described above b) no safener treatment
The herbicides were formulated as WP and sprayed onto the green parts of the plants as an aqueous suspension at an equivalent water application rate of 300 1/ha, with addition of wetting agent and adjuvants (e.g. Mero, 1.5 1/ha; ammonium sulphate, 2 kg/ha)
After application, the test plants were kept in the greenhouse under good growth conditions.
Values in the table below are mean values of at least 2 replicates.

ZEAMA Sileno [2] = assay: Tank-mix; post-emergence, crop damage with and without safener; assay type: in vivo, maize; settings: for HER effect + SAF / HER effect: Final assessment; for HER effect: no safener
Procedure: Seeds of crops (spring wheat, TRZAS; spring barley, HORVS; maize, ZEAMA) were placed in sandy loam soil in peat pots, covered with soil and cultivated in a greenhouse under good growth conditions. Two to three weeks after sowing, the test plants were treated at the 1 to 3-leaf stage. The herbicide/safener active compound combinations according to the invention, formulated as wettable powders or emulsion concentrates, and, in parallel tests, the correspondingly formulated individual active compounds were sprayed onto the green parts of the plants in various dosages using an amount of water of 300 1/ha (converted).
The pots were returned under good growing conditions in a glasshouse and a visual assessment of herbicidal effects was made at intervals from 1 to 3 weeks after herbicide application (DAT = days after treatment). Assessment was on a percentage basis in comparison with untreated control plants (0% = no injury, 100% = complete kill).

[3] = HER 8 g a.i./ha, cyprosulfamide 50 g a.i./ha
[4] = HER 32 g a.i./ha, cyprosulfamide 100 g a.i./ha
[5] = HER dose 8 g a.i./ha + cyprosulfamide 50 g a.i./ha tank-mix
[6] = HER dose 32 g a.i./ha + cyprosulfamide 100 g a.i./ha tank-mix

Compound	Reduction [%] (ZEAMA Sileno [1]; HER dose 8 g a.i./ha)	Reduction [Difference] (ZEAMA Sileno [1]; HER dose 8 g a.i./ha)	HER effect + SAF (crop damage with safener) (ZEAMA Sileno [1]; HER dose 8 g a.i./ha)	HER effect (crop damage, herbicide without safener) (ZEAMA Sileno [1]; HER dose 8 g a.i./ha)	Reduction [%] (ZEAMA Sileno [1]; HER dose 32 g a.i./ha)	Reduction [Difference] (ZEAMA Sileno [1]; HER dose 32 g a.i./ha)	HER effect + SAF (crop damage with safener) (ZEAMA Sileno [1]; HER dose 32 g a.i./ha)	HER effect (crop damage, herbicide without safener) (ZEAMA Sileno [1]; HER dose 32 g a.i./ha)	Reduction [%] (ZEAMA Sileno [2]; [3])	Reduction [Difference] (ZEAMA Sileno [2]; [3])	Reduction [%] (ZEAMA Sileno [2]; [4])	Reduction [Difference] (ZEAMA Sileno [2]; [4])	HER effect + SAF (ZEAMA Sileno [2]; [5])	HER effect (ZEAMA Sileno [2]; HER dose 8 g a.i./ha)	HER effect + SAF (ZEAMA Sileno [2]; [6])	HER effect (ZEAMA Sileno [2]; HER dose 32 g a.i./ha)	Reduction [%] (ZEAMA Sileno [1]; HER dose 2 g a.i./ha)	Reduction [Difference] (ZEAMA Sileno [1]; HER dose 2 g a.i./ha)	HER effect + SAF (crop damage with safener) (ZEAMA Sileno [1]; HER dose 2 g a.i./ha)	HER effect (crop damage, herbicide without safener) (ZEAMA Sileno [1]; HER dose 2 g a.i./ha)	also measured
COC(=O)C1C=CC(NC(=O)C2(C)CC(c3cc(Cl)cc(C#N)c3)=NO2)C1 (mixture of isomers) [Example 1.23]	100%	50	0%	50%	96%	67	3%	70%	60%	30	67%	47	20%	50%	23%	70%	–	–	–	–	–
CCOC(=O)C1=CCC(NC(=O)C2(C)CC(c3cccc(F)c3)=NO2)C1 (mixture of isomers) [Example 1.59]	100%	20	0%	20%	85%	57	10%	67%	100%	20	90%	60	0%	20%	7%	67%	–	–	–	–	–
CC1(C(=O)NC2CC=C(C(=O)NS(C)(=O)=O)C2)CC(c2cc(F)cc(F)c2)=NO1 (mixture of isomers) [Example 1.61]	57%	47	35%	82%	44%	40	50%	90%	–	–	–	–	–	–	–	–	–	–	–	–	–
C=CC1(C(=O)NC2COC(C(=O)OCCOC)C2)CC(c2cc(F)cc(F)c2)=NO1 (mixture of isomers) [Example 1.66]	100%	96	0%	96%	97%	94	3%	97%	76%	73	54%	52	23%	96%	45%	97%	100%	33	0%	33%	Reduction [%] (ZEAMA Sileno [2]; HER 2 g a.i./ha, cyprosulfamide 50 g a.i./ha): 79%; Reduction [Difference] (ZEAMA Sileno [2]; HER 2 g a.i./ha, cyprosulfamide 50 g a.i./ha, damage without safener - damage with safener): 26; HER effect + SAF (ZEAMA Sileno [2]; HER dose 2 g a.i./ha + cyprosulfamide 50 g a.i./ha tank-mix): 7%; HER effect (ZEAMA Sileno [2]; HER dose 2 g a.i./ha, 0% = no injury, 100% = complete kill): 33%
C=CCOC(=O)C1CC(NC(=O)C2(C)CC(c3cc(F)cc(F)c3)=NO2)CO1 (mixture of isomers) [Example 1.75]	100%	73	0%	73%	89%	78	10%	88%	62%	45	66%	58	28%	73%	30%	88%	–	–	–	–	–
C=CC1(C(=O)NC2COC(C(=O)OCCCl)C2)CC(c2cc(F)cc(F)c2)=NO1 (mixture of isomers) [Example 1.82]	89%	83	10%	93%	84%	77	15%	92%	–	–	–	–	–	–	–	–	100%	28	0%	28%	–

Source: patent US20230240297A1, “SELECTIVE HERBICIDES BASED ON SUBSTITUTED ISOXAZOLIN CARBOXAMIDES AND CYPROSULFAMIDE” (Bayer Aktiengesellschaft, priority 2020, published 2023)
